# Measured values from patent publication US12629406B2, “Alterations in endothelin receptors following hemorrhage and resuscitation by centhaquin” (MIDWESTERN UNIVERSITY, priority 2018, dated 2026).
# Where two headings read alike, the source gives them in different places.
# What was measured:
# [1] = Rat hemorrhagic shock, hypertonic saline resuscitation: cardiovascular response (MAP, HR, CO, SVR); type: in vivo; conditions: for heart rate (HR): 60 minutes after resuscitation
# Method: Animals. Male Sprague-Dawley rats (340 to 380 g) (Envigo, Indianapolis, IN) were housed for at least 4 days in a room with controlled temperature (23±1° C.), humidity (50±10%) and light (6:00 A.M. to 6:00 P.M.) before being used. Food and water were made available continuously. Animal care and use for experimental procedures were approved by the Institutional Animal Care and Use Committee of the Midwestern University. All anesthetic and surgical procedures were in compliance with the guidelines established by the Animal Care Committee.
# Determination of cardiovascular response. The animals were anesthetized with urethane dissolved in isotonic saline. Urethane was administered in a dose of 1.5 g per kg body weight via intraperitoneal injection. Urethane was selected as an anesthetic agent, because it produces long lasting (8-10 hours) anesthesia with minimal cardiovascular and respiratory system depression. It produces a level of surgical anesthesia characterized by preservation of cardiovascular reflexes (Maggi and Meli 1986). Briefly, anaesthetized rats were immobilized on a surgical board equipped with controlled heating pad. Blood PO2, Pco2 and pH, were maintained using a tracheotomy cannula connected to a rodent ventilator (Model 683, Harvard Apparatus Inc., Holliston, MA). The right carotid artery was exposed to measure the left ventricular performance. Surgical suture (Deknatel, Research Triangle Park, NC) was secured around the proximal end of the carotid artery and an ultra-miniature pressure-volume (P-V) catheter SPR-869 (Millar Instruments, Houston, TX) was inserted through a tiny incision made near the proximal end of the artery. The P-V terminal of the catheter was connected to MPVS-300 P-V unit through PEC-4D and CEC-4B cables and advanced into the left ventricle to obtain the P-V signals. The signals were continuously aquired (1000 S^−1) using the MPVS-300 P-V unit (AD Instruments, Mountain View, CA, USA) and PowerLab 16/30 data acquisition system (AD Instruments). MAP and HR were measured by cannulating the left femoral artery with pressure catheter SPR-320 (Millar Instruments), connected to the ML221 bridge amplifier (AD Instruments) through AEC-10C connector and the signals were acquired (1000 S^−1) using PowerLab 16/30 data acquisition system (Gulati et al. 2012; Pacher et al. 2008). The left femoral vein was cannulated using PE 50 tubing (Clay Adams, Parsipanny, NJ) and secured for resuscitation.
# Induction of Hemorrhagic Shock. Hemorrhage was induced by withdrawing blood from the femoral artery at a rate of approximately 0.5 to 1 mL/min until a MAP of 35 mmHg was reached. This MAP was maintained for 30 min by further withdrawal of blood, if necessary. The hemorrhagic shock model used in the present study is a well-established rodent model of manageable pressure hemorrhage (Buehler et al. 2000; Gulati et al. 1997a; Gulati and Sen 1998). The volume of blood loss was about approximately 8.0 ml in each rat and was similar in various groups, amounting to approximately 40% of the total blood. Measured hematocrit levels were similar in various groups. The duration of blood withdrawal was approximately 15 minutes.
# Experimental design. To determine the resuscitative effect of centhaquin on cardiovascular system and plasma cytokines in hemorrhagic shock, rats were randomly divided into five groups, Group 1: Sham control (Non-hemorrhaged) (n=5), Group 2: Hemorrhage with no resuscitation (n=5); Group 3: Hemorrhage followed by resuscitation with 3% hypertonic saline (vehicle) (n=5); Group 4: Hemorrhage followed by resuscitation with vehicle plus centhaquin (0.017 mg/kg) (n=5); and Group 5: Hemorrhage followed by resuscitation with vehicle plus centhaquin (0.05 mg/kg) (n=5). Resuscitation was started 30 min after induction of hemorrhagic shock as an intravenous infusion (1 mL/min) through femoral vein using an infusion pump (Harvard Apparatus Infusion/Withdrawal Pump, Millis, MA). […]
# [2] = Renal blood flow of hemorrhaged rats subjected to 20 minutes of renal artery occlusion; type: in vivo, rat
# Method: Effect of centhaquin on renal blood perfusion of hemorrhaged rats. Hemorrhaged rats were resuscitated with vehicle (saline) or centhaquin low dose (0.01 mg/kg) or high dose (0.1 mg/kg). The effect of centhaquin on renal blood perfusion was measured before the induction of shock, 30 minutes after shock (hemorrhage) and 10, 30, 60, 90 and 120 minutes after resuscitation. […] This improved renal medullary blood perfusion is indicative of a use of centhaquin to prevent or treat injury to the kidneys (FIG. 5). […] A low dose of 0.02 mg/kg of centhaquin was also found to be effective in increasing the renal blood flow of hemorrhaged rats subjected to 20 minutes of renal artery occlusion.
# [3] = Renal blood perfusion in hemorrhaged rats with norepinephrine infusion to maintain MAP at 70 mmHg; type: in vivo, rat
# Method: Experimental design. To determine the resuscitative effect of centhaquin on cardiovascular system in hemorrhagic shock, rats were randomly divided into three groups: Hemorrhaged rats were administered 100% shed blood volume of either normal saline (vehicle); 100% shed blood volume of either normal saline plus centhaquin (0.01 mg/kg) or 100% shed blood volume of either normal saline plus centhaquin (0.10 mg/kg) during the first 10 minutes of resuscitation. Additional experiments were also carried out where the amount of norepinephrine (a very commonly used vasopressor during resuscitation) required to maintain MAP at 70 mmHg in normal saline (NS) or centhaquin (0.01 mg/kg) treated rats (volume equal to blood loss) was determined.
# The femoral vein was cannulated for drug administration, femoral artery was cannulated for measuring mean arterial pressure (MAP) and a laser Doppler flow probe was placed in the renal medulla to measure blood perfusion. Induction of hemorrhagic shock was initiated by withdrawing blood to maintain the MAP at 35 mmHg for 30 minutes. Norepinephrine infusion was carried out to bring and maintain the MAP to 70 mmHg. The effect of centhaquin on cardiovascular functions were measured before the induction of shock, 30 minutes after shock (hemorrhage) and 15, 30, 45, 60, 75 and 90 minutes after resuscitation. […]
# [4] = cited from earlier work
compound,measurement,setting,value
"Cc1cccc(N2CCN(CCc3ccc4ccccc4n3)CC2)c1 [centhaquin, 2-[2-(4-(3-methyphenyl)-1-piperazinyl)]ethyl-quinoline]",cardiac output (CO) compared to hypertonic saline alone,[1]; 30 and 60 min post resuscitation,significantly increased
same,systemic vascular resistance (SVR),"[1]; 30 and 60 minutes of resuscitation, versus post-hemorrhage",further decreased
same,heart rate (HR),[1]; centhaquin 0.017 mg/kg,361±10 beats/min
same,heart rate (HR),[1]; centhaquin 0.05 mg/kg,363±10 beats/min
same,mean arterial pressure (MAP) post resuscitation,"[1]; centhaquin 0.017 and 0.05 mg/kg, for at least 60 min, p<0.01",significant increase
same,difference in HR following resuscitation,[1]; hypertonic saline or centhaquin,No significant difference
same,increasing the renal blood flow,"[2]; high dose 0.2 mg/kg, versus 0.02 mg/kg",did not have the same efficacy
same,increasing the renal blood flow,[2]; low dose 0.02 mg/kg,effective
same,renal blood perfusion compared to vehicle control following resuscitation,"[3]; hemorrhaged female rats, till the end of experiment",improved
same,renal blood perfusion compared to vehicle control following resuscitation,[3]; hemorrhaged male rats,improved
same,survival compared to Lactated Ringer's,[4]; 0.015 mg/kg in the fluid resuscitation phase,significantly better survival
same,cardiac output (CO),[4]; 0.015 mg/kg,augments CO
same,systemic vascular resistance (SVR),[4]; 0.015 mg/kg,reduces systemic vascular resistance
same,volume of fluids for resuscitation,[4]; 0.015 mg/kg,requires smaller volume of fluids
